As a reminder, the half-life is the time needed for the level to fall by half in the phase considered. Usually AUC stands for concentration integrated over time. A lower AUC goes with low exposure. Usually IC50 stands for the midpoint of a concentration-inhibition curve. One may read the AUC(0-t) as exposure summed from dosing to a finite time, without extrapolation to infinity. A low value points to less exposure.

Data set [1] is described as follows: Plasma and A431 tumour pharmacokinetics of compounds 11 and 20. Conditions: NIHIII, mouse, 75 umol/kg.
Description: A small piece (˜100 mg) of tissue was placed in biopulveriser well (previously cooled in liquid nitrogen) and reduced to fine powder with a 2-3 strong blows to the stainless steel pestle. The frozen powder was collected in pre-weighed microcentrifuge tube (kept on dry ice). […] The microcentrifuge tubes were spun at 13,000 rpm for 10 min to precipitate the cell debris and proteins. […] The analytes were eluted using a gradient of 0.01% formic acid in acetonitrile (80%)-water (20%) mixture and 0.01% formic acid in water (100%) on Zorbax SB 018, rapid resolution HT 3.0×50 mm, 1.8 micron (Agilent) HPLC column with a flow rate of 0.6 ml/min.
Data set [2] deals with SKOV3 xenografts. Kind of data set: In vivo efficacy in SKOV3 xenografts. On the set-up: species or system mice. The note with it: q3dx6, 133 (20) and 56 (11) umol/kg/dose. As for the experimental part:
(§1) Specific pathogen-free homozygous female NIH-III nude mice (Charles River Laboratories, Wilmington, Mass.) were inoculated subcutaneously with a single cell suspension of SKOV3 cells (1×10^7 cells/100 μL; right flank). When SKOV3 tumour xenografts were established (typically 50-65 days) mice were randomized to treatment groups. All compounds were prepared in lactate buffer (pH4). Mice were dosed by intraperitoneal injection (0.01-0.03 ml/g) using the stated schedules and dose levels. Tumour size and body weights were measured at regular intervals. Tumour volume was calculated as π (length×width^2)/6. […] Differences in RTV^4 were tested for statistical difference by Mann Whitney U test using SigmaStat v3.5.
as §1, with “Compounds 42 and 161” for “All compounds”

Data set [3] has as its system A431 cells. As to the kind of experiment: Cellular growth inhibition (sulforhodamine B). Conditions: Homo sapiens.
Data set [4] relates to SW620 cells. As to the kind of experiment: Cellular growth inhibition (sulforhodamine B). Format: cell-based, Human. The note with it: Table 3; for IC50: Homo sapiens, SW-620.
Data set [5] relates to Erk1/2. The note with it: EGF-stimulated A431 cells.
The target in data set [6] is erbB4 (Homo sapiens, UniProt Q15303). As to the kind of experiment: Isolated enzyme inhibition (Invitrogen Z′-LYTE kinase assay). Format: biochemical. The note with it: 10 μM ATP, duplicate.
Chain of erbB4 (Q15303 26-1308): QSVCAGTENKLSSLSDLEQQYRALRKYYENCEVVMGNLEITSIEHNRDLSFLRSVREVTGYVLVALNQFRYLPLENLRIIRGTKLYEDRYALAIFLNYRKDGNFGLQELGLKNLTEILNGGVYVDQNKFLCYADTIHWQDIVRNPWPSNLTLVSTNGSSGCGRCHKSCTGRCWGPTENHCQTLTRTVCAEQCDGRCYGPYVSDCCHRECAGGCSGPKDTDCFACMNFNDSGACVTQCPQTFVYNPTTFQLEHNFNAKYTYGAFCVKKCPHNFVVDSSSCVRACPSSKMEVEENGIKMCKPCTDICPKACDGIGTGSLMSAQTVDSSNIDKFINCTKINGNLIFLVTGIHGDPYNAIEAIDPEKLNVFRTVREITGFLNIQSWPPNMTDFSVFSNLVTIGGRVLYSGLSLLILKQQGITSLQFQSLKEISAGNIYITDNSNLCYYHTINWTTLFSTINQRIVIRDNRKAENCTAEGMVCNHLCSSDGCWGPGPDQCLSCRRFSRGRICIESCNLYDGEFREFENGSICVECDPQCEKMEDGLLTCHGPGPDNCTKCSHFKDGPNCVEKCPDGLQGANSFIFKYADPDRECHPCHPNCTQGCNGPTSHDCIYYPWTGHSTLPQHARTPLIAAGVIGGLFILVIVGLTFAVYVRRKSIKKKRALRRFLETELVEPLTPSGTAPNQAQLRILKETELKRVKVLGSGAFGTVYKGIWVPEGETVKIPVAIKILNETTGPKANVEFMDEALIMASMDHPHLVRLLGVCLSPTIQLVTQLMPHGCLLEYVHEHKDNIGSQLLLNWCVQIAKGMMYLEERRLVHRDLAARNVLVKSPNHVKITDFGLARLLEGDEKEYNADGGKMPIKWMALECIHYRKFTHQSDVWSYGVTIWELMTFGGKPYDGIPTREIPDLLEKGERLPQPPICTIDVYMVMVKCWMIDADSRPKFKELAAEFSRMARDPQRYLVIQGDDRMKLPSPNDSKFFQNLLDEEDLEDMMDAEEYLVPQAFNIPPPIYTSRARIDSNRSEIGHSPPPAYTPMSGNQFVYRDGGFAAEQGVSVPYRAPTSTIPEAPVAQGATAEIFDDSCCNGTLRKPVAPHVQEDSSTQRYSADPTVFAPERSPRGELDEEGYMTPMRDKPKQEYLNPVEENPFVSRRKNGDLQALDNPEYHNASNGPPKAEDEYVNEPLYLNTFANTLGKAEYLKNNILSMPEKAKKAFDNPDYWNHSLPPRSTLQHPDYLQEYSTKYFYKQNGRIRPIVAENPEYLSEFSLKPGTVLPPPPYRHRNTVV
For data set [7], the target named is erbB2 (Homo sapiens, UniProt P04626). Described as above. The note with it: 10 μM ATP, duplicate. Format: biochemical.
Chain of erbB2 (P04626 23-1255): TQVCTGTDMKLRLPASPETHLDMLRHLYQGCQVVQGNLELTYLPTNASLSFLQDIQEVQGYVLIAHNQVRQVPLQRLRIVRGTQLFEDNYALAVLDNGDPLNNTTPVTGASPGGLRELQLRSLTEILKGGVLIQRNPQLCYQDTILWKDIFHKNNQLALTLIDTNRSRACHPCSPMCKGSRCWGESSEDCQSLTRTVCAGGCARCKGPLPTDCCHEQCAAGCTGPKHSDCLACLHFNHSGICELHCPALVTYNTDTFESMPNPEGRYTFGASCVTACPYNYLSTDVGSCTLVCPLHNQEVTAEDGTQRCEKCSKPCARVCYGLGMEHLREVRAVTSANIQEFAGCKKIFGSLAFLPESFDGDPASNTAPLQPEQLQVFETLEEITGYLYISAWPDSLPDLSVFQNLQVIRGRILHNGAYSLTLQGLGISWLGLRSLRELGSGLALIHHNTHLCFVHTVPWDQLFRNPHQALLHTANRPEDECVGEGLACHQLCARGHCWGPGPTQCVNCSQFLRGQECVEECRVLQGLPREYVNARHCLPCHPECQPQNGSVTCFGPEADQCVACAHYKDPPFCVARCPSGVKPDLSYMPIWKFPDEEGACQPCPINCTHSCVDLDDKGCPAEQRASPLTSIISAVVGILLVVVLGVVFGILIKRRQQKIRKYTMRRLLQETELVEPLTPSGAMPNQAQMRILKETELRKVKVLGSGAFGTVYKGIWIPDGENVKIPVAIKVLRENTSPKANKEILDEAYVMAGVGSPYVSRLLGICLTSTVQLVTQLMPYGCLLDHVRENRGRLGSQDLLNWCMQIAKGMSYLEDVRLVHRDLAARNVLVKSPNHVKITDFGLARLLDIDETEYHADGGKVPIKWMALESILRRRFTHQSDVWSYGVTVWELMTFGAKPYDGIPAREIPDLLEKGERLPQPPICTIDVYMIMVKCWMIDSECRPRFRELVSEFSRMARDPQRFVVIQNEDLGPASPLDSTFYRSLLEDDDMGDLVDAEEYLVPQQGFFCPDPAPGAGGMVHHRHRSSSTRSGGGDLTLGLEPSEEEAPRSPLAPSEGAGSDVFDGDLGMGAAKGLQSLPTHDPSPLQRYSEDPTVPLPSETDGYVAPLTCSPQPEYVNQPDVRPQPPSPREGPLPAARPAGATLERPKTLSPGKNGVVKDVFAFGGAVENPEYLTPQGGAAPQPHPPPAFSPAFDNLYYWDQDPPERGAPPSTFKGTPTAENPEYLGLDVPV
For data set [8], the system named is SKBR3 cells. As to the kind of experiment: Cellular growth inhibition (sulforhodamine B). In kind it is cell-based, Human. Conditions: Table 3; for IC50: Homo sapiens, SK-BR-3.
Data set [9] in a line: in vivo. The note with it: female, CD-1 nude, mouse, ip.
A short description of data set [10]: in vivo. Conditions: mouse, plasma, ip, 42 umol/kg.
Data set [11] concerns the target T1, erbB1 (Homo sapiens, UniProt P00533). As to the kind of experiment: Inhibition of erbB1 autophosphorylation in EGF-stimulated intact A431 cells (Western blot). Conditions: EGF-stimulated A431 cells.
In data set [12] the target is T1, erbB1. As to the kind of experiment: Cellular erbB1 inhibition: irreversibility wash-out assay in A431 cells.
Data set [13] has as its system A431 xenografts. As to the kind of experiment: In vivo efficacy in A431 xenografts. The note with it: A431 xenografts, q4dx6, 63% of single dose MTD. As for the experimental part: as §1, with “CD-1” for “NIH-III”, “A431” for “SKOV3”, “(5×10^6” for “(1×10^7”, “[…];” for “μL;”, “6-10” for “50-65”

Several values for one entry are separate records, joined by “and”; a condition that tells them apart may be missing. Equal entries are not always repeated. Where two headings read alike, the source gives them in different places.

T1 sequence (P00533 25-1210): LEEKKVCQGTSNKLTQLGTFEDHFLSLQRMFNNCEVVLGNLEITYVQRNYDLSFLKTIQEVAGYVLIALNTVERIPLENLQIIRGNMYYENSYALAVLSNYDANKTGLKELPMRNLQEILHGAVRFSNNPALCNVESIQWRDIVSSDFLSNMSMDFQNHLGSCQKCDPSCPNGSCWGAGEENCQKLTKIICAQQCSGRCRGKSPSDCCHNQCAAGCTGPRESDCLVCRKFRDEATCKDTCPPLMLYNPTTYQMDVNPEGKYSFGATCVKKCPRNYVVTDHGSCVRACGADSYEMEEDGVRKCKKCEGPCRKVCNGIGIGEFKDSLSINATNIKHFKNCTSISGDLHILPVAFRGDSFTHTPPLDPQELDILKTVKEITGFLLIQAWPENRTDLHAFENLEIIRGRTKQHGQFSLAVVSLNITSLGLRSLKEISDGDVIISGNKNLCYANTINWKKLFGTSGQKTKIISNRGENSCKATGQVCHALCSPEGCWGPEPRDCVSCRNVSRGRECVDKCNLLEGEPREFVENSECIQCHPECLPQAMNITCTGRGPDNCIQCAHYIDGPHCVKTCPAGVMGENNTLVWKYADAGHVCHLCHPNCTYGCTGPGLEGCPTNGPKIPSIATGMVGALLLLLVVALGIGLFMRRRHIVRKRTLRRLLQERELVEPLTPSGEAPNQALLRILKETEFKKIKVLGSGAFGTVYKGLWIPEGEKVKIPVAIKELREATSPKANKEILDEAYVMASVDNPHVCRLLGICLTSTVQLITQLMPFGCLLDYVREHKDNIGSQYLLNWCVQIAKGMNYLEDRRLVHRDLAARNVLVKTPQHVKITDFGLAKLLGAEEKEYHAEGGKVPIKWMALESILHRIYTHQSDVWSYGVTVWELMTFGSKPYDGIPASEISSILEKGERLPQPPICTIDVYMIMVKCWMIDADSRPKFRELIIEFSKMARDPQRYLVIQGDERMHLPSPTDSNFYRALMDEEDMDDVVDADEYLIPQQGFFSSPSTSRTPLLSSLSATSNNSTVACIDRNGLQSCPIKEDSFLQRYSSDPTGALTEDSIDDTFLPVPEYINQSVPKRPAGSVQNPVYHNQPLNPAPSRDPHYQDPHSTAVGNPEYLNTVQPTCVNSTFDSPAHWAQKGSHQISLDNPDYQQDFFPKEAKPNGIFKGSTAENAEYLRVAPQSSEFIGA

`CN(C)C/C=C/C(=O)Nc1ccc2ncnc(Nc3cccc(Br)c3)c2c1` [Compound 11, (2E)-N-[4-(3-bromoanilino)-6-quinazolinyl]-4-(dimethylamino)-2-butenamide, reference compound]: the half-life in data set [1] (A431 tumour, intraperitoneal) was 9 h. Moreover, the AUC in data set [1] (plasma, ip) came to 18 µM·h. In addition, the deaths is listed as 1/7 in data set [2] and 2/12 in [13]. The half-maximal inhibitory concentration (IC50) in data set [3] (A-431, 24 h, read-out: Cellular Growth Inhibition IC50 A431 Oxic) is 40 nM; in data set [3] (A-431, read-out: Cellular Growth Inhibition IC50 A431 Anoxic), 40 nM; in data set [4] (24 hour exposure entirely oxic, read-out: Cellular Growth Inhibition IC50 SW620 Oxic), 3430 nM; in data set [4] (first 4 hours anoxic, read-out: Cellular Growth Inhibition IC50 SW620 Anoxic) it was 2890 nM; in data set [6], 2.7 nM; in data set [7], 8 nM and 7.7 nM. Further, the IC50 in data set [8] (24 hour exposure entirely oxic, read-out: Cellular Growth Inhibition IC50 SKBR3 Oxic) is 81 nM; in [8] (first 4 hours anoxic, read-out: Cellular Growth Inhibition IC50 SKBR3 Anoxic) it was 141 nM. Further, the “SW620 HCR” value in data set [4] is reported as 1.2 fold. Also, in data set [5], the “inhibition of cellular Erk1/2 phosphorylation” value is given as “potent inhibitor”. Moreover, in data set [8], the “SKBR3 HCR” value is 0.6 fold. The same compound displayed an MTD in data set [9] of 100 µmol/kg. In addition, in data set [10], the AUC(0-t) worked out at 12 µM·h. The “inhibition of cellular HER1 phosphorylation” value in data set [11] is listed as “potent inhibitor”. Besides, in data set [12], the “erbB1 autophosphorylation, cells not washed free of drug” value is on record as “completely inhibited”.

Source of the values: US9073916B2, “Prodrug forms of kinase inhibitors and their use in therapy” (AUCKLAND UNISERVICES LIMITED, priority 2009, dated 2015).
